Assay results reported in patent US9790218B2, “Small molecule activators of calcium-activated chloride channels and methods of use” (The Regents of the University of California, priority 2011, dated 2017).

Biological target: T1, TMEM16A (Homo sapiens, UniProt Q5XXA6, DEL476-501)
T1 construct: expressed in transfected cells
T1 sequence (Q5XXA6 with tags, fused parts or gaps isoform Q5XXA6-5 DEL539-564): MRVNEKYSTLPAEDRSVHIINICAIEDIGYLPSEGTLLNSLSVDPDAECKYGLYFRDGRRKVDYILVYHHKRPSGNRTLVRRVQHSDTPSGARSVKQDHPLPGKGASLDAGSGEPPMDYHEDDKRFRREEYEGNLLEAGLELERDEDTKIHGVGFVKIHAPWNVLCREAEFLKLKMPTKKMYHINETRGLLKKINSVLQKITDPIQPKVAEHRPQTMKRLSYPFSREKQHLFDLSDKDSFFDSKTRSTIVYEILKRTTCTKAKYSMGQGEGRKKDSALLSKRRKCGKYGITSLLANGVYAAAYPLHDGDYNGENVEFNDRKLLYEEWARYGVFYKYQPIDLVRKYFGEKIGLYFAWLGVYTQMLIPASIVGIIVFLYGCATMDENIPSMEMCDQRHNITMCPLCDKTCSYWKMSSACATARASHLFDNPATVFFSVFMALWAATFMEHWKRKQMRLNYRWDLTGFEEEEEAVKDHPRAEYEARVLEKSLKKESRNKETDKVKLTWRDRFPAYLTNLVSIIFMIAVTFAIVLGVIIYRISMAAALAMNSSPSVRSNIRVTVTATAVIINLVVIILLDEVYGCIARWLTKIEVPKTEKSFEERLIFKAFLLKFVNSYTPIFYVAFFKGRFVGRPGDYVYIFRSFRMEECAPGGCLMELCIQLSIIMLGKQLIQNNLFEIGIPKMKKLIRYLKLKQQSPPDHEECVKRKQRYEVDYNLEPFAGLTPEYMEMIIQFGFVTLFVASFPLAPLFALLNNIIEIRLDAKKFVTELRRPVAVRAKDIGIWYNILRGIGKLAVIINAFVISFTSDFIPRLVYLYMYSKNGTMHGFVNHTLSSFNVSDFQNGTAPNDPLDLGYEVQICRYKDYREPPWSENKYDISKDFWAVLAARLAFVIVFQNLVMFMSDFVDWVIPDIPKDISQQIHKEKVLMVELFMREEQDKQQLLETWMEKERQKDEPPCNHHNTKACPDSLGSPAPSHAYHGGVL
Assay: Whole-cell patch-clamp of TMEM16A-expressing FRT cells
Assay type: cell-based
Procedure: FIG. 4A-D. Patch-clamp analysis of Ca^2+ requirements for TMEM16A activation by Eact and Fact. FIG. 4A. Apical membrane current measured in TMEM16A-expressing FRT cells. ER calcium stores were depleted by CPA (50 μM, 30 min) and 0 CaCl2 in bath. ATP (100 μM), Fact (10 μM), Eact (10 μM) and T16Ainh-A01 (10 μM) were added as indicated. FIG. 4B and FIG. 4C. Whole-cell TMEM16A currents were recorded at a holding potential at 0 mV, and pulsing to voltages between ±80 mV (in steps of 20 mV) in the absence and presence of 3 μM Eact or 10 μM Fact. Free calcium concentration of pipette solutions were clamped at 0 μM, 0.07 μM, 0.15 μM, and 1 μM. Eact (3 μM) or Fact (10 μM) added as indicated. (right) Current/voltage (I/V) plots of mean currents at the middle of each voltage pulse. The Ca^2+ concentration is indicated to the right. FIG. 4D. TMEM16A inhibited by 10 μM T16Ainh-A01 after stimulation by Eact or Fact.
Whole-cell recordings were made at room temperature on TMEM16A-expressing FRT cells and human submandibular A253 cells. The bath solution contained (in mM): 140 NMDG-Cl, 1 CaCl2, 1 MgCl2, 10 glucose and 10 HEPES (pH 7.4). The pipette solution contained (in mM): 130 CsCl, 0.5 EGTA, 1 MgCl2, 1 Tris-ATP, and 10 HEPES (pH 7.2). Different concentrations of free calcium in pipette solution were obtained by replacing 0.5 mM EGTA with 5 mM EGTA, and using different amounts of CaCl2 in the pipette solution. Pipettes were pulled from borosilicate glass and had resistances of 3-5 MΩ after fire polishing. Seal resistances were between 3 and 10 GΩ. After establishing the whole-cell configuration, TMEM16A was activated by 100 μM ATP, TMEM16A activators or different concentrations of free calcium in the pipette solution. Whole-cell currents were elicited by applying hyperpolarizing and depolarizing voltage pulses from a holding potential of 0 mV to potentials between −100 mV and +100 mV in steps of 20 mV. Recordings were made at room temperature using an Axopatch-200B (Axon Instruments). Currents were digitized with a Digidata 1440A converter (Axon Instruments), filtered at […].
The Ca^2+ dependence of TMEM16A activation by Eact and Fact was investigated. […] Whole-cell currents were then recorded by patch-clamp at different cytoplasmic (pipette) [Ca^2+]. […] (FIG. 4B, bottom and right). […] Thus, Eact and Fact activate TMEM16A by different mechanisms: Eact as a largely Ca^2+-independent ‘activator’, and Fact as a ‘potentiator’ of Ca^2+ activation.

| block of Cl^− currents produced by Eact or Fact (10 μM T16Ainh-A01) | Structure (SMILES) | maximum TMEM16A Cl^− current at high [Ca^2+] (3 μM Eact or 10 μM Fact) | whole-cell Cl^− current at submaximal Ca^2+ (compared to no compound, 10 μM Fact) | whole-cell TMEM16A Cl^− current at 0 Ca^2+ (pipette 0 Ca^2+, 3 μM Eact or 10 μM Fact) |
| --- | --- | --- | --- | --- |
| – | O=C(Nc1ccc(Br)cc1)c1cccc(-n2cnnn2)c1 [Fact, N-(4-bromophenyl)-3-(1H-tetrazol-1-yl)benzamide] | not further increased | increased Cl^− current | did not product Cl^− current |
| completely blocked | CCc1c(C)nc(SCC(=O)Nc2nc(-c3ccc(OC)cc3)cs2)[nH]c1=O [T16Ainh-A01, reference compound] | – | – | – |
